pEC50: −log10 of the molar value. Where two headings read alike, the source gives them in different places. A value given as a limit tells only on which side of the number the result lay.

The target in one assay is human FPR2 (Homo sapiens (Human), UniProt P25090). Description: FPR2 cyclic adenosine monophosphate (cAMP) assay. The format is cell-based. The note with it: CHO cells overexpressing human FPR2. The protocol:
(§1) FPR2 and FPR1 Cyclic Adenosine Monophosphate (cAMP) Assays. A mixture of forskolin (5 μM final for FPR2 or 10 μM final for FPR1) and IBMX (200 μM final) were added to 384-well Proxiplates (Perkin-Elmer) pre-dotted with test compounds in DMSO (1% final) at final concentrations in the range of 1.7 nM to 100 μM. Chinese Hamster Ovary cells (CHO) overexpressing human FPR1 or human FPR2 receptors were cultured in F-12 (Ham's) medium supplemented with 10% qualified FBS, 250 μg/ml zeocin and 300 μg/ml hygromycin (Life Technologies). Reactions were initiated by adding 2,000 human FPR2 cells per well or 4,000 human FPR1 cells per well in Dulbecco's PBS (with calcium and magnesium) (Life Technologies) supplemented with 0.1% BSA (Perkin-Elmer). The reaction mixtures were incubated for 30 min at room temperature. The level of intracellular cAMP was determined using the HTRF HiRange cAMP assay reagent kit (Cisbio) according to manufacturer's instruction. Solutions of cryptate conjugated anti-cAMP and d2 flurorophore-labelled cAMP were made in a supplied lysis buffer separately. Upon completion of the reaction, the cells were lysed with equal volume of the d2-cAMP solution and anti-cAMP solution. After a 1-h room temperature incubation, time-resolved fluorescence intensity was measured using the Envision (Perkin-Elmer) at 400 nm excitation and dual emission at 590 nm and 665 nm. A calibration curve was constructed with an external cAMP standard at concentrations ranging from 1 μM to 0.1 pM by plotting the fluorescent intensity ratio from 665 nm emission to the intensity from the 590 nm emission against cAMP concentrations. The potency and activity of a compound to inhibit cAMP production was then determined by fitting to a 4-parametric logistic equation from a plot of cAMP level versus compound concentrations.

For another assay, the target named is human FPR1 (Homo sapiens (Human), UniProt P21462). Description: FPR1 cyclic adenosine monophosphate (cAMP) assay. The format is cell-based. The note with it: CHO cells overexpressing human FPR1; forskolin 10 μM; inhibition of cAMP production; read-out: hFPR1 cAMP EC50. The protocol:
as §1
For orientation: Changes in cAMP serve as a functional read-out for many G protein-coupled receptors.

Where [1] appears, read: forskolin 5 μM, inhibition of cAMP production, read-out: hFPR2 cAMP2 EC50.
Setting [2] is: cAMP assay, read-out: hFPR2 agonist activity EC50 (hFPR2 Assay).

Chain of human FPR1 (P21462 whole entry): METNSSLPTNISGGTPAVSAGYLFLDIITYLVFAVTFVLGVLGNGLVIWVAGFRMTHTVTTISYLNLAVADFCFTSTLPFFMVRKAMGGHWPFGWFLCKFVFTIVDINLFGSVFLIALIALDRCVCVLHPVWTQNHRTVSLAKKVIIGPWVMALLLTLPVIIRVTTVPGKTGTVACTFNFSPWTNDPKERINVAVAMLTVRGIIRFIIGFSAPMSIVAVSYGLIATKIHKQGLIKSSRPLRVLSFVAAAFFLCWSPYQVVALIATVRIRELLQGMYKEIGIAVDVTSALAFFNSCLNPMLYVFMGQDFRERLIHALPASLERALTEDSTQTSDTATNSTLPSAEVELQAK
Chain of human FPR2 (P25090 whole entry): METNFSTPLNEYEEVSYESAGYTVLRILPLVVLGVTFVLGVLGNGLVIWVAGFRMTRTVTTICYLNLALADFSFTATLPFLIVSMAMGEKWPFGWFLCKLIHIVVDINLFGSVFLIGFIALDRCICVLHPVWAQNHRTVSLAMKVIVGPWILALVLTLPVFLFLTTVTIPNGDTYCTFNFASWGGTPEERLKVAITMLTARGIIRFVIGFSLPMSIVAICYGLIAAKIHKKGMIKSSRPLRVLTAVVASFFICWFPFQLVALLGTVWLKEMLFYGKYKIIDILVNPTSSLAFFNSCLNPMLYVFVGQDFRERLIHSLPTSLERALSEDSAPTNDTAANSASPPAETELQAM

As usually defined, the pEC50 is −log10 of the EC50, conventionally taken in molar units. For `CN(C)C1CCCN(c2ccc(N3CCC[C@@H](NC(=O)Nc4ccc(C(F)(F)F)cc4)C3=O)cc2)C1` (some centres unmarked) [Example 77], the results for the pEC50 on human FPR2 (setting [1]) and on human FPR1 were 9.74 and 5.96, respectively.

Take `O=C(Nc1ccc(C(F)(F)F)cc1)N[C@@H]1CCCN(c2ccc(N3CCCC(CO)C3)nc2)C1=O` (some centres unmarked) [Example 56]: the figures for the pEC50 at human FPR2 (setting [1]) and at human FPR1 were 8.74 and 7.35, respectively.

Turning to `O=C(Nc1ccc(C(F)(F)F)cn1)N[C@@H]1CCCN(c2ccc(N3CC4(COC4)C3)cc2)C1=O` [Example 12], the results for the pEC50 at human FPR2 (setting [2]), on human FPR2 (setting [1]) and at human FPR1 were 6.00 to 7.00, 6.42 and 5.30, respectively.

`O=C(Nc1ccc(C(F)(F)F)cc1)N[C@@H]1CCCN(c2ccc(N3CCCC(F)(F)C3)cc2)C1=O` [Example 70]: the figures for the negative logarithm of the EC50 (pEC50) at human FPR2 (setting [1]) and at human FPR1 were 8.62 and 7.17, respectively.

Take `O=C(Nc1ccc(C(F)(F)F)nc1)N[C@@H]1CCCN(c2ccc(N3CCCCC3=O)cc2F)C1=O` [Example 50]: the negative logarithm of the EC50 (pEC50) on human FPR2 (setting [1]) is 6.48; on human FPR1, < 5.00.

Take `COCC1CCCCN1c1ccc(N2CCC[C@@H](NC(=O)Nc3ccc(C(F)(F)F)cc3)C2=O)cc1` (some centres unmarked) [Example 14]: the negative logarithm of the EC50 (pEC50) was 8.68 on human FPR2 (setting [1]) and 7.44 at human FPR1.

Consider `CN(C)C1CCN(c2ccc(N3CCC[C@@H](NC(=O)Nc4ccc(Cl)cc4)C3=O)cc2F)C1` (some centres unmarked) [Example 83], for which the pEC50 at human FPR2 (setting [1]) is 9.41; at human FPR1, 5.96.

On to `O=C(Nc1ccc(C(F)(F)F)cc1)N[C@@H]1CCCN(c2ccc(N3CCCCC3)cc2)C1=O` [Example 45], for which the negative-log EC50 (pEC50) at human FPR2 (setting [1]) is 8.52; on human FPR1, 7.96.

Consider `O=C(Nc1ccc(C(F)(F)F)cc1)N[C@@H]1CCCN(c2ccc(N3CCOCC3)nc2)C1=O` [Example 54, (R)-1-(1-(6-Morpholinopyridin-3-yl)-2-oxopiperidin-3-yl)-3-(4-(trifluoromethyl)phenyl)urea], for which the pEC50 was 7.51 on human FPR2 (setting [1]) and 6.04 on human FPR1.

As to `O=C(Nc1ccc(Cl)cc1)N[C@@H]1CCCN(c2ccc(N3C[C@H]4CC[C@@H](C3)O4)cc2F)C1=O` [Example 107], the figures for the pEC50 on human FPR2 (setting [1]) and at human FPR1 were 8.59 and 6.48, respectively.

On to `CN(C)C1CCN(c2ccc(N3CCC[C@@H](NC(=O)Nc4ccc(Cl)cc4F)C3=O)c(F)c2)C1` (some centres unmarked) [Example 81], for which the negative-log EC50 (pEC50) on human FPR2 (setting [1]) is 9.51; at human FPR1 it was 5.77.

As for `COC[C@@H]1CCCN1c1ccc(N2CCC[C@@H](NC(=O)Nc3ccc(Cl)cc3)C2=O)cc1` [Example 26], the figures for the negative-log EC50 (pEC50) at human FPR2 (setting [2]), at human FPR2 (setting [1]) and on human FPR1 were ≥ 8.00, 8.43 and 7.92, respectively.

Regarding `O=C(Nc1ccc(C(F)(F)F)cc1)N[C@@H]1CCCN(c2ccc(N3CCCCC3=O)cc2)C1=O` [Example 4], the negative logarithm of the EC50 (pEC50) at human FPR2 (setting [2]) is 7.00 to 8.00; on human FPR2 (setting [1]) it was 7.55; at human FPR1 it was 6.39.

Take `C[C@@H]1CN(c2ccc(N3CCC[C@@H](NC(=O)Nc4ccc(C(F)(F)F)cc4)C3=O)cc2)C[C@H](C)O1` [Example 43]: the negative logarithm of the EC50 (pEC50) at human FPR2 (setting [2]) is 7.00 to 8.00.

Turning to `O=C(Nc1ccc(C(F)(F)F)cn1)N[C@@H]1CCCN(c2ccc(N3CC[C@@H](O)C3)cc2)C1=O` [Example 28], the negative-log EC50 (pEC50) at human FPR2 (setting [2]) was 6.00 to 7.00.

As to `CC1CCN(c2ccc(N3CCC[C@@H](NC(=O)Nc4ccc(C(F)(F)F)cc4)C3=O)cn2)CC1` [Example 59], the negative-log EC50 (pEC50) on human FPR2 (setting [2]) is 7.00 to 8.00.

Take `CC(C)N1CCN(c2ccc(N3CCC[C@@H](NC(=O)Nc4ccc(C(F)(F)F)cc4)C3=O)cc2)CC1` [Example 33]: the negative-log EC50 (pEC50) on human FPR2 (setting [2]) was 7.00 to 8.00.

Take `CS(=O)(=O)N1CCN(c2ccc(N3CCC[C@@H](NC(=O)Nc4ccc(C(F)(F)F)cc4)C3=O)cc2)CC1` [Example 34]: the figures for the pEC50 at human FPR2 (setting [1]) and at human FPR1 were 6.40 and 5.66, respectively.

In the case of `O=C(Nc1ccc(Cl)nc1)N[C@@H]1CCCN(c2ccc(N3CC[C@@H](O)C3)cc2)C1=O` [Example 6], the pEC50 on human FPR2 (setting [2]) was 7.00 to 8.00.

Turning to `C[C@H]1COCCN1c1ccc(N2CCC[C@@H](NC(=O)Nc3ccc(C(F)(F)F)nc3)C2=O)cc1` [Example 8], the pEC50 at human FPR2 (setting [2]) is 6.00 to 7.00.

As for `O=C(Nc1ccc(C(F)(F)F)cc1)N[C@@H]1CCCN(c2ccc(N3CCC(CO)C3)cc2)C1=O` (some centres unmarked) [Example 73], the pEC50 on human FPR2 (setting [2]) was ≥ 8.00.

Consider `COC[C@@H]1CCCN1c1ccc(N2CCC[C@@H](NC(=O)Nc3ccc(C(F)(F)F)cn3)C2=O)cc1` [Example 24], for which the pEC50 at human FPR2 (setting [2]) is 6.00 to 7.00.

For the molecule `O=C(Nc1ccc(C(F)(F)F)cc1)N[C@@H]1CCCN(c2ccc(N3C[C@H]4CC[C@@H](C3)O4)cc2)C1=O` [Example 5], at human FPR2 (setting [2]), the pEC50 is ≥ 8.00.

Regarding `O=C(Nc1ccc(Cl)cc1)N[C@@H]1CCCN(c2ccc(N3C[C@H]4COC[C@H]4C3)cc2)C1=O` [Example 95], the results for the negative-log EC50 (pEC50) at human FPR2 (setting [1]) and at human FPR1 were 8.60 and 7.12, respectively.

Consider `CC1(O)CCN(c2ccc(N3CCC[C@@H](NC(=O)Nc4ccc(Cl)cc4)C3=O)cc2)C1` (some centres unmarked) [Example 94], for which the negative-log EC50 (pEC50) on human FPR2 (setting [2]) is ≥ 8.00.

On to `CN(C)C1CN(c2ccc(N3CCC[C@@H](NC(=O)Nc4ccc(C(F)(F)F)cc4)C3=O)cc2)CC1O` (some centres unmarked) [Example 79], for which, at human FPR2 (setting [2]), the negative logarithm of the EC50 (pEC50) was ≥ 8.00.

As to `COCC1CCCCN1c1ccc(N2CCC[C@@H](NC(=O)Nc3cnc(C(F)(F)F)cn3)C2=O)c(F)c1` (some centres unmarked) [Example 71], the pEC50 at human FPR2 (setting [2]) was ≥ 8.00.

As for `C[C@@H]1COCCN1c1ccc(N2CCC[C@@H](NC(=O)Nc3ccc(C(F)(F)F)nc3)C2=O)cc1` [Example 7], the pEC50 on human FPR2 (setting [2]) is 7.00 to 8.00.

As to `O=C(Nc1ccc(C(F)(F)F)cc1)N[C@@H]1CCCN(c2ccc(N3CC[C@@H](O)C3)cc2)C1=O` [Example 1, 1-(1-(4-((R)-3-Hydroxypyrrolidin-1-yl)phenyl)-2-oxopiperidin-3-yl)-3-(4-(trifluoromethyl)phenyl)urea], the negative logarithm of the EC50 (pEC50) on human FPR2 (setting [2]) is ≥ 8.00.

As for `O=C(Nc1ccc(C(F)(F)F)cc1)N[C@@H]1CCCN(c2ccc(N3C[C@H]4CC[C@@H](C3)O4)nc2)C1=O` [Example 104], the pEC50 on human FPR2 (setting [1]) is 7.74; on human FPR1, 6.20.

On to `O=C(Nc1ccc(C(F)(F)F)cc1)N[C@H]1CCCN(c2ccc(N3CC4(COC4)C3)cc2)C1=O` [Example 9], for which the values for the pEC50 on human FPR2 (setting [2]), on human FPR2 (setting [1]) and on human FPR1 were 6.00 to 7.00, 6.27 and 5.82, respectively.

With `COC[C@@H]1CCCN1c1ccc(N2CCC[C@@H](NC(=O)Nc3ccc(C(F)(F)F)cn3)C2=O)cn1` [Example 63], at human FPR2 (setting [2]), the pEC50 is 6.00 to 7.00.

Regarding `O=C(Nc1ccc(Cl)cc1)N[C@@H]1CCCN(c2ccc(N3CCC4(CC4)C3)cc2)C1=O` [Example 96], the pEC50 on human FPR2 (setting [2]) is ≥ 8.00.

In the case of `CN(C)C1CCN(c2ccc(N3CCC[C@@H](NC(=O)Nc4ccc(Cl)cc4)C3=O)cn2)C1` (some centres unmarked) [Example 103], the pEC50 on human FPR2 (setting [2]) was ≥ 8.00.

Turning to `O=C(Nc1ccc(Cl)cc1)N[C@@H]1CCCN(c2ccc(N3CCC(C4CC4)C3)cc2)C1=O` (some centres unmarked) [Example 97], the negative-log EC50 (pEC50) on human FPR2 (setting [2]) is ≥ 8.00.

For `CS(=O)(=O)C1CCN(c2ccc(N3CCC[C@@H](NC(=O)Nc4ccc(Cl)cc4F)C3=O)c(F)c2F)C1` (some centres unmarked) [Example 89], the pEC50 at human FPR2 (setting [2]) was ≥ 8.00.

For `COCC1CCCCN1c1ccc(N2CCC[C@@H](NC(=O)Nc3ccc(C(F)(F)F)nc3)C2=O)cc1` (some centres unmarked) [Example 15], the results for the pEC50 on human FPR2 (setting [1]) and at human FPR1 were 7.49 and 6.18, respectively.

On to `COC[C@@H]1CCCN1c1ccc(N2CCC[C@@H](NC(=O)Nc3ccc(C(F)(F)F)cc3)C2=O)cc1` [Example 27], for which the pEC50 on human FPR2 (setting [2]) is 7.00 to 8.00.

Regarding `CC(=O)N1CCN(c2ccc(N3CCC[C@@H](NC(=O)Nc4ccc(C(F)(F)F)cc4)C3=O)cc2)CC1` [Example 29], the negative-log EC50 (pEC50) at human FPR2 (setting [2]) was 6.00 to 7.00.

As to `CC(=O)N[C@@H]1CCN(c2ccc(N3CCC[C@@H](NC(=O)Nc4ccc(C(F)(F)F)cc4)C3=O)cc2)C1` [Example 69], the negative logarithm of the EC50 (pEC50) was 7.85 on human FPR2 (setting [1]) and 6.72 on human FPR1.

In the case of `O=C(Nc1ccc(Cl)cc1)N[C@@H]1CCCN(c2ccc(N3CCC4(CCCO4)CC3)cc2)C1=O` [Example 102], the negative logarithm of the EC50 (pEC50) is 7.82 at human FPR2 (setting [1]) and 7.21 on human FPR1.

Values taken from US11008301B2, “Piperidinone formyl peptide 2 receptor agonists” (BRISTOL-MYERS SQUIBB COMPANY, priority 2017, dated 2021).
